Assay results reported in US20250049966A1, “SMALL MOLECULE TRACER FOR IMAGING ALPHA-SYNUCLEIN AGGREGATES” (Fudan University, priority 2021, published 2025).
“Also recorded” adds a separate entry of the source. Like-named read-outs stand apart in the source and are kept apart here.

What was measured:
[1] = target: T1, human α-synuclein aggregates (Homo sapiens, UniProt P37840); assay: Fluorescence saturation binding of compounds to α-synuclein aggregates
T1 construct: made in house; host or cells: E. coli BL21 (DE3)
Experimental: 1 μL ampicillin anti-plasmid with α-synuclein in the correct sequence was mixed with 100 μL BL21 (DE3) receptive cells, cooled in an ice bath, added in 600 μL LB medium, and cultured in a 220 rpm shaking bed at 37° C. for 90 min. 150 μL cultured bacterial solution was added to the sterilized dish coated with ampicillin medium evenly. Positive clonal colonies were selected and added to the configured ampicillin medium and cultured in an incubator at 37° C. The cultured positive clones were poured into 1 L of 2×YT medium and cultured in a 220 rpm shaker at 37° C. to make OD 600 0.6 and then cooled to 18° C. Each medium was induced to culture for 16 hours by adding 1 ml of IPTG (500 mM).
The bacteria were centrifuged at high speed for 30 min after ultrasonic. The supernatant was collected to remove DNA and hetero-proteins by Ni-NTA chromatography. α-synuclein monomer was purified by molecular exclusion chromatography and the purity was verified by SDS-PAGE discontinuous electrophoresis.
α-synuclein monomers were prepared into a buffer solution containing 1×PBS, wherein the final protein concentration was 100 μM (about 5 mg/mL), and incubated in a 1000 rpm shaker at 37° C. for 7 days to obtain α-synuclein aggregates. The initial and final concentrations of the monomer protein were determined by the BCA method.
10 mM mother solution of DMSO was prepared from 1 mg of the compound, then diluted to 20 μM with PBS, and made gradient dilution 7 times (3× each dilution); 30 μL of test compound was added to the 384-well plate, following the experimental group was added to 30 μL α-synuclein aggregates (3 μM), and the control group was added to the same amount of PBS. After the 384-well plate was incubated shaking at 50 rpm at room temperature for 1 hour, the plate was taken out to detect the maximum absorption and emission wavelengths of the compound with an ELISA Microplate Reader, and the fluorescence values were detected at these wavelengths, too. The fluorescence changes in different concentrations of compounds were calculated using the experimental group data minus the control group data, and the protein-binding affinity of compounds was obtained using the Saturation binding module of GraphPad Prism.
The binding affinity of the Formula I compound to α-synuclein aggregates is determined by the above method, and the dissociation equilibrium constant Kd is shown in Table 1.

[2] = target: T2, Aβ lesions (Homo sapiens, UniProt P05067); assay: Fluorescence staining of brain slices from patients with Alzheimer's disease (AD), Aβ; assay type: binding; settings: 30 μM compound, superior temporal gyrus sections 6 μm, fluorescence microscopy, FIG. 2
T2 construct: from tissue
T2 sequence (P05067 672-713 limits assumed): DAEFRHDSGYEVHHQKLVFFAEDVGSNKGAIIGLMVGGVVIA
Experimental: (§1) The tested compound was diluted to 30 μM with PBS solution containing 50% EtOH, following incubated with the fresh frozen brain sections at room temperature for 30 minutes, then washed with 50% ethanol solution for 5 minutes and ultra-pure water twice for 3 minutes each time in sequence. After the sections were buried with an embedding agent (VECTASHIELD H-1000, Vector Laboratories), images of the lesion accumulation area on the sections were obtained by fluorescence microscopy. Analysis software (Image J) was used to quantify the fluorescence radiance of both the lesion area and the area of the non-forming lesion (background) to evaluate binding selectivity.
(§2) The dewaxed brain tissue was fixed in a 10% neutral buffer of formalin solution, embedded with paraffin, and then sliced with a thickness of 6 μm. The staining method is the same as the above method for DLB patients.

[3] = target: T3, Lewy bodies and Lewy neurites (α-synuclein lesions) (Homo sapiens, UniProt P37840); assay: Fluorescence staining of brain slices from patients of dementia with Lewy body (DLB); assay type: binding; settings: for Staining of Lewy bodies and Lewy neurites in DLB patient brain slices: 30 μM compound, frozen amygdala sections 20 μm, fluorescence microscopy, FIG. 1; for Binding to α-synuclein pathological tissue compared with Aβ and Tau pathological tissue (selectivity): DLB versus AD brain slices, FIG. 1 and FIG. 2
T3 construct: from tissue; host or cells: human amygdala, DLB patient, fresh frozen sections
Experimental: Brain slices from patients with dementia with Lewy bodies were taken from the amygdala of a deceased person in stage 2 of dementia with Lewy bodies. Frozen sections of the amygdala with rich α-synuclein were performed with a thickness of 20 μm.
as §1

[4] = Blood-brain barrier permeability test, rat tail vein injection; assay type: in vivo; settings: brain / blood supernatant after centrifugation, intravenous, SD rats, 5 mg/kg tail vein, 20 min after administration, LC-MS/MS, read-out: brain/blood ratio
Experimental: The compound of the invention is injected into a rat tail vein to determine the blood-brain barrier permeability in vivo according to the following method.
Dissolve the tested compound in DMSO, and add castor oil and PBS for dilution (DMSO:castor oil:PBS=1:1:8). SD rats were weighed and given 5 mg/kg in the tail vein. 500 μL of blood was taken 20 min after administration after anesthetized with isoflurane. Cardiac perfusion was performed with 200 mL PBS and stopped until the organ faded, following brain tissue was got out and washed with PBS.
After centrifuging the extracted blood at 9000 rpm for 5 min, 200 μL supernatant was taken and added 800 μL methanol. After centrifuging at 14000 rpm for 10 min, the supernatant was taken and filtered through a 0.22 μm filter membrane and stored at −80° C. for use.
2 mL PBS and 2 mL methanol were added to about 0.5 g of brain tissue to make a tissue homogenization, and then 1 mL homogenate was taken out and centrifuged at 14,000 rpm for 10 min after 2 mL methanol was added, 1 mL supernatant was taken through 0.22 μm filter membrane and stored at −80° C. for use. The concentration of compounds in the above supernatant of blood and brain homogenate were checked by LC-MS/MS, respectively.

[5] = tested on: Tau neurofibrillary filaments; assay: Fluorescence staining of brain slices from patients with Alzheimer's disease (AD), Tau; assay type: binding, human; settings: 30 μM compound, superior temporal gyrus sections 6 μm, fluorescence microscopy, FIG. 2
Experimental: as §1, §2

[6] = fluorescence method, α-synuclein aggregates (3 μM), room temperature 1 hour, read-out: Binding affinity (Kd) on human α-synuclein aggregates

Row | Compound | Kd [1, 6] | Binding to α-synuclein pathological tissue compared with Aβ and Tau pathological tissue (selectivity) [3] | Kp at 20 min [4] | Staining/binding of Aβ lesions in AD patient brain slices [2] | Staining of Lewy bodies and Lewy neurites in DLB patient brain slices [3] | Staining/binding of Tau neurofibrillary filaments in AD patient brain slices [5] | Kd [1]
1 | CN1CCN(c2ccc3oc(-c4ccc(N(C)C)nc4)nc3c2)C(=O)C1 [I-4] |  | significantly stronger | ≥ 1 | could also detect Aβ lesions; also recorded: very weak binding | can stain Lewy bodies and Lewy neurites; also recorded: can well label the α-synuclein in Lewy bodies and Lewy neurites | fail to Tau neurofibrillary filaments; also recorded: no binding | 100 to 200 nM
2 | CN(C)c1ccc(-c2nc3cc(-c4cccnc4)ccc3o2)cn1 [I-1] | 500 to 1000 nM |  |  |  |  |  | 
3 | CN(C)c1ccc(-c2nc3cc(-c4cccnc4)ccc3o2)cc1 [I-2] | 500 to 1000 nM |  |  |  |  |  | 
4 | CN(C)c1ccc(-c2nc3cc(N4CCN(CCF)CC4=O)ccc3o2)cn1 [I-10] | 200 to 500 nM |  |  |  |  |  | 

Continued, in another order:

Row | Kd [1, 6] | Binding to α-synuclein pathological tissue compared with Aβ and Tau pathological tissue (selectivity) [3] | Kp at 20 min [4] | Compound | Staining/binding of Aβ lesions in AD patient brain slices [2] | Staining of Lewy bodies and Lewy neurites in DLB patient brain slices [3] | Staining/binding of Tau neurofibrillary filaments in AD patient brain slices [5] | Kd [1]
5 | 200 to 500 nM | significantly stronger | ≥ 1 | Fc1ccc(-c2ccc3oc(-c4ccc(N5CCCC5)nc4)nc3c2)cn1 [I-5] | could also detect Aβ lesions; also recorded: very weak binding | can stain Lewy bodies and Lewy neurites; also recorded: can well label the α-synuclein in Lewy bodies and Lewy neurites | fail to Tau neurofibrillary filaments; also recorded: no binding | 
6 | 200 to 500 nM | significantly stronger | ≥ 1 | Fc1ccc(-c2ccc3nc(-c4ccc(N5CCCC5)nc4)oc3c2)cn1 [I-6] | could also detect Aβ lesions; also recorded: very weak binding | can stain Lewy bodies and Lewy neurites; also recorded: can well label the α-synuclein in Lewy bodies and Lewy neurites | fail to Tau neurofibrillary filaments; also recorded: no binding | 
